According to patent publication US10758534B2 (Vertex Pharmaceuticals Incorporated, priority 2014, dated 2020):

Molecular target: T1, F508del (Homo sapiens, UniProt P13569, DEL508-508)
T1 construct: expressed in transfected cells
Assay: Protocol 1: membrane potential optical assay (FLIPR III, voltage sensing dye), identification of potentiator compounds
Format: cell-based
Details: Table 3, compounds of Table 1
Method in brief: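 Gating potentiation is read as a membrane-potential fluorescence change (FLIPR III, voltage-sensing dye) after one forskolin addition under a Cl− gradient, with gluconate replacing chloride, pH 7.4. Cells are F508del-expressing NIH3T3 mouse fibroblasts held 24 h at 27 °C and exposed to compound before dye loading.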

T1 sequence (P13569 with tags, fused parts or gaps DEL508-508): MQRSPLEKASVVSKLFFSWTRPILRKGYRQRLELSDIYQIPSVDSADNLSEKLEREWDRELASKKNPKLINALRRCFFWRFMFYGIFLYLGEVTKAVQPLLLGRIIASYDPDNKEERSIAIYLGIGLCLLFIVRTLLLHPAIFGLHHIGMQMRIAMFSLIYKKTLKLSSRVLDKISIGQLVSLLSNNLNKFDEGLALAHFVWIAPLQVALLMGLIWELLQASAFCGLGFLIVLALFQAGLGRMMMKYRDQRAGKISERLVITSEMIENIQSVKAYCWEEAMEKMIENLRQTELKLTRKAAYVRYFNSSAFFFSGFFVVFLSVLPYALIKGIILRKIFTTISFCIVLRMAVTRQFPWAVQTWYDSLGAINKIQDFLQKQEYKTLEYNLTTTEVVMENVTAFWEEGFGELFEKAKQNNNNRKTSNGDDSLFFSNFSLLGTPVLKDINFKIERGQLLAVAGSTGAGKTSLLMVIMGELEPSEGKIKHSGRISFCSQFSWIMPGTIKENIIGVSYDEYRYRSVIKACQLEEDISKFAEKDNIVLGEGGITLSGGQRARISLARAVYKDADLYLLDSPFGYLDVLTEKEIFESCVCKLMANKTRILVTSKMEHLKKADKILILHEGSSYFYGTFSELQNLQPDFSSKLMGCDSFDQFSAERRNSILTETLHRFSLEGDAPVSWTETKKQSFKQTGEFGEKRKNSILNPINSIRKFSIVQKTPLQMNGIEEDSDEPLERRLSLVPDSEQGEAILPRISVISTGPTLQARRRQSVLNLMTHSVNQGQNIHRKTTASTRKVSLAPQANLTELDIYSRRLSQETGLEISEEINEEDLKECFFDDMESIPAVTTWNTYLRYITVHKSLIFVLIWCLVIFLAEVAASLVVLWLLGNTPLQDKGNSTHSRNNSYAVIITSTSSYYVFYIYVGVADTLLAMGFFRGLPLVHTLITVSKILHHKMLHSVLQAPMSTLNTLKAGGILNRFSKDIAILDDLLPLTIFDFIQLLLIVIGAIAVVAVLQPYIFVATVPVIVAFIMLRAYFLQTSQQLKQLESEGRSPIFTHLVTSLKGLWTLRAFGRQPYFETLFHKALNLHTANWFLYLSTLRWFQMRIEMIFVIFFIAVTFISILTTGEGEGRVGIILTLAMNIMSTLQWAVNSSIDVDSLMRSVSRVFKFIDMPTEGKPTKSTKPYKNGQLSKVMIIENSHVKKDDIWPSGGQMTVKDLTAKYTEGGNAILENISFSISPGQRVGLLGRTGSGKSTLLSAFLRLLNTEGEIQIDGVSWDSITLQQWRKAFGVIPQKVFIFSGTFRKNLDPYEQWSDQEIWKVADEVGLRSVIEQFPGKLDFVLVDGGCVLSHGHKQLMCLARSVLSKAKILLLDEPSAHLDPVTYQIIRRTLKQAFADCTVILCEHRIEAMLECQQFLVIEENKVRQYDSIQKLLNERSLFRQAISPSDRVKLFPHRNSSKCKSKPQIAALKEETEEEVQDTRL

Row | Structure (SMILES) | EC30
1 | CCOc1cccc(Oc2cccc(S(=O)(=O)NC(=O)c3cccnc3N3CC(C)CC3(C)C)n2)c1 (stereo not drawn) [Compound 1828, N—[[6-(3-ethoxyphenoxy)-2-pyridyl]sulfonyl]-2-(2,2,4-trimethylpyrrolidin-1-yl)pyridine-3-carboxamide] | +++ (“+++” means <3 uM)
2 | Cc1cc(C)c(Oc2nc(-c3ccccn3)ccc2C(=O)NS(=O)(=O)c2cccc(N)n2)c(C)c1 [Compound 1278, N-[(6-amino-2-pyridyl)sulfonyl]-6-(2-pyridyl)-2-(2,4,6-trimethylphenoxy)pyridine-3-carboxamide] | + (“+” means greater than 10 uM)
3 | CCOCCc1ccc(C(=O)NS(=O)(=O)c2cccc(N)n2)c(Oc2c(C)cc(C)cc2C)n1 [Compound 929, N-[(6-amino-2-pyridyl)sulfonyl]-6-(2-ethoxyethyl)-2-(2,4,6-trimethylphenoxy)pyridine-3-carboxamide] | ++ (“++” means between 3 uM and 10 uM)
4 | Cc1cc(C)c(CN2Cc3c(O)cccc3C2(C)C(=O)NS(=O)(=O)c2cccc(N)n2)c(C)c1 (stereo not drawn) [Compound 1338, N-[(6-amino-2-pyridyl)sulfonyl]-4-hydroxy-1-methyl-2-[(2,4,6-trimethylphenyl)methyl]isoindoline-1-carboxamide] | ++ (“++” means between 3 uM and 10 uM)
5 | COc1cccc(-c2ccc(C(=O)NS(=O)(=O)c3cccc(N)n3)c(Oc3c(C)cc(C)cc3C)n2)n1 [Compound 1034, N-[(6-amino-2-pyridyl)sulfonyl]-6-(6-methoxy-2-pyridyl)-2-(2,4,6-trimethylphenoxy)pyridine-3-carboxamide] | +++ (“+++” means <3 uM)
6 | Cc1cc(OCC(C)C)nn1-c1ccc(C(=O)NS(=O)(=O)c2cccc(N)n2)c(N2C[C@@H](C)CC2(C)C)n1 [Compound 1407, N-[(6-amino-2-pyridyl)sulfonyl]-6-(3-isobutoxy-5-methyl-pyrazol-1-yl)-2-[(4S)-2,2,4-trimethylpyrrolidin-1-yl]pyridine-3-carboxamide] | +++ (“+++” means <3 uM)
7 | COc1ncccc1S(=O)(=O)NC(=O)C1CCc2ccccc2CN1Cc1c(C)cc(C)cc1C (stereo not drawn) [Compound 1342, N-[(2-methoxy-3-pyridyl)sulfonyl]-2-[(2,4,6-trimethylphenyl)methyl]-1,3,4,5-tetrahydro-2-benzazepine-3-carboxamide] | +++ (“+++” means <3 uM)
8 | CCOc1cccc2c1CN(Cc1c(C)cc(C)cc1C)C2(C)C(=O)NS(=O)(=O)c1ccc(Cl)c(N)n1 (stereo not drawn) [Compound 1596, N-[(6-amino-5-chloro-2-pyridyl)sulfonyl]-4-ethoxy-1-methyl-2-[(2,4,6-trimethylphenyl)methyl]isoindoline-1-carboxamide] | +++ (“+++” means <3 uM)
9 | Cc1cccc(C)c1Oc1nc(C(C)(C)C)ccc1C(=O)NS(=O)(=O)c1cccc(N)n1 [Compound 1243, N-[(6-amino-2-pyridyl)sulfonyl]-6-tert-butyl-2-(2,6-dimethylphenoxy)pyridine-3-carboxamide] | +++ (“+++” means <3 uM)
10 | Cc1cc(C)c(Oc2nc(C3=CCN(C(=O)C(C)C)CC3)ccc2C(=O)NS(=O)(=O)c2cccc(N)n2)c(C)c1 [Compound 1540, N-[(6-amino-2-pyridyl)sulfonyl]-6-[1-(2-methylpropanoyl)-3,6-dihydro-2H-pyridin-4-yl]-2-(2,4,6-trimethylphenoxy)pyridine-3-carboxamide] | + (“+” means greater than 10 uM)
11 | CC(C)COc1cc(F)cc(-c2ccc(C(=O)NS(=O)(=O)c3cccc(N)n3)c(N3CCCC4(CCC4)C3)n2)c1 [Compound 1264, N-[(6-amino-2-pyridyl)sulfonyl]-2-(8-azaspiro[3.5]nonan-8-yl)-6-(3-fluoro-5-isobutoxy-phenyl)pyridine-3-carboxamide] | +++ (“+++” means <3 uM)
12 | CC(C)COc1ccc(-c2ccc(C(=O)NS(=O)(=O)c3ccc[nH]c3=O)c(N3[C@H](C)CC[C@@H]3C)n2)cc1 [Compound 891, 2-[(2S,5R)-2,5-dimethylpyrrolidin-1-yl]-6-(4-isobutoxyphenyl)-N-[(2-oxo-1H-pyridin-3-yl)sulfonyl]pyridine-3-carboxamide] | +++ (“+++” means <3 uM)
13 | CC(C)COc1cc(F)cc(-c2ccc(C(=O)NS(=O)(=O)c3ccn[nH]3)c(N3C(C)CC(c4ccccc4)C3C)n2)c1 (stereo not drawn) [Compound 1348, 2-(2,5-dimethyl-3-phenyl-pyrrolidin-1-yl)-6-(3-fluoro-5-isobutoxy-phenyl)-N-(1H-pyrazol-5-ylsulfonyl)pyridine-3-carboxamide] | +++ (“+++” means <3 uM)

Next, values leading:

Row | EC30 | Structure (SMILES)
14 | +++ (“+++” means <3 uM) | COc1ccc(-c2ccc(C(=O)NS(=O)(=O)c3cccnc3N)c(N3C[C@@H](C)CC3(C)C)n2)c(OC)c1 [Compound 1705, N-[(2-amino-3-pyridyl)sulfonyl]-6-(2,4-dimethoxyphenyl)-2-[(4S)-2,2,4-trimethylpyrrolidin-1-yl]pyridine-3-carboxamide]
15 | +++ (“+++” means <3 uM) | Cc1c(F)cccc1-c1ccc(C(=O)NS(=O)(=O)c2cccnc2N)c(N2C[C@@H](C)CC2(C)C)n1 [Compound 1944, N-[(2-amino-3-pyridyl)sulfonyl]-6-(3-fluoro-2-methyl-phenyl)-2-[(4S)-2,2,4-trimethylpyrrolidin-1-yl]pyridine-3-carboxamide]
16 | +++ (“+++” means <3 uM) | Cc1cc(OCC(C)(C)C)ncc1-c1ccc(C(=O)NS(=O)(=O)c2cccc(N)n2)c(N2CC(C)CC2(C)C)n1 (stereo not drawn) [Compound 1160, N-[(6-amino-2-pyridyl)sulfonyl]-6-[6-(2,2-dimethylpropoxy)-4-methyl-3-pyridyl]-2-(2,2,4-trimethylpyrrolidin-1-yl)pyridine-3-carboxamide]
17 | +++ (“+++” means <3 uM) | Cc1cc(OC(C)C)ncc1-c1ccc(C(=O)NS(=O)(=O)c2cccc(N)n2)c(N2CC(C)CC2(C)C)n1 (stereo not drawn) [Compound 905, N-[(6-amino-2-pyridyl)sulfonyl]-6-(6-isopropoxy-4-methyl-3-pyridyl)-2-(2,2,4-trimethylpyrrolidin-1-yl)pyridine-3-carboxamide]
18 | +++ (“+++” means <3 uM) | CC1CN(c2nc(-c3cccc(OCC(C)(C)C)n3)ccc2C(=O)NS(=O)(=O)c2cccc(N)n2)C(C)(C)C1 (stereo not drawn) [Compound 1062, N-[(6-amino-2-pyridyl)sulfonyl]-6-[6-(2,2-dimethylpropoxy)-2-pyridyl]-2-(2,2,4-trimethylpyrrolidin-1-yl)pyridine-3-carboxamide]
19 | +++ (“+++” means <3 uM) | CCN(CC)c1ccc(-c2ccc(C(=O)NS(=O)(=O)c3cccc(N)n3)c(N3CC(C)CC3(C)C)n2)cn1 (stereo not drawn) [Compound 796, N-[(6-amino-2-pyridyl)sulfonyl]-6-[6-(diethylamino)-3-pyridyl]-2-(2,2,4-trimethylpyrrolidin-1-yl)pyridine-3-carboxamide]
20 | +++ (“+++” means <3 uM) | Cc1ccc(-c2ccc(C(=O)NS(=O)(=O)c3ccc[nH]c3=O)c(N3C[C@@H](C)CC3(C)C)n2)c2ccccc12 [Compound 1811, 6-(4-methyl-1-naphthyl)-N-[(2-oxo-1H-pyridin-3-yl)sulfonyl]-2-[(4S)-2,2,4-trimethylpyrrolidin-1-yl]pyridine-3-carboxamide]
21 | +++ (“+++” means <3 uM) | Cc1ccc(CNc2cccc(S(=O)(=O)NC(=O)c3cccnc3N3CC(C)CC3(C)C)n2)cc1 (stereo not drawn) [Compound 1892, N—[[6-(p-tolylmethylamino)-2-pyridyl]sulfonyl]-2-(2,2,4-trimethylpyrrolidin-1-yl)pyridine-3-carboxamide]
